Results published in patent US20100104980A1, “LITHOGRAPHIC PRINTING PLATE PRECURSOR” (Agfa Graphics NV, priority 2007, published 2010).

Legend:
[1] = Solubility in methylethylketone (MEK) measured at 20° C.; assay type: physicochemical
Experimental: The symmetric sensitizers SS-01 to SS-06 are given in Table 1 together with their solubility in methylethylketone (S (MEK)) measured at 20° C.

[2] = Solubility in 1-methoxy-2-propanol (MOP) at 80° C., Lasentec FBRM technology; assay type: physicochemical; conditions: solubility in 1-methoxy-2-propanol at 80° C.; from curve fitting of experimental data
Experimental: (§1) In the present application the MetaStable Zone of solutions of a sensitizer and/or a mixture of sensitizers were measured with Lasentec® FBRM® technology, from Mettler Toledo. In this experimental set up, a Lasentec® Probe is used in an automated Labmax® 2 litre reactor, both from Mettler Toledo. In a typical investigation, the solution is cooled at a controlled rate (° C./min.) At a certain temperature, the probe detects nucleation and holds the solution at that temperature as crystallization proceeds. After completion of the crystallization, the solution is subjected to a controlled heating (° C./min) until the probe detects the temperature at which dissolution of the crystals is nearly completed. Again, the solution is kept at that temperature until all crystals are dissolved. Such cooling and heating cycli are performed for different concentrations of the solution. All actions, i.e. performing the cooling and heating cycli, dilution of the solution, storage and analysis of the data are performed automatically by the experimental set up used.
(§2) All investigations were performed on a sensitizer solution in 1-methoxy-2-propanol, since this typical coating solvent has a high boiling point (120° C.) and, as described above, will probably determine the crystallization behaviour at the end of the drying step of the photopolymerizable coating.
(§3) The obtained data for each investigated solution of a sensitizer or a mixture of sensitizers may be represented as in FIG. 1. In FIG. 1, curve S is the solubility curve and curve N the nucleation curve. These curves border three regions characterizing the solution as a function of concentration and temperature: the UnSaturated Zone (USZ), a stable zone wherein the solution is unsaturated (sensitizer is completely dissolved); an Unstable Zone (UZ), wherein crystallization occurs; and a MetaStable Zone (MSZ) wherein the solution is supersaturated but wherein no crystallization occurs.
(§4) The suspension was stirred at 350 rpm and heated until complete dissolution of all sensitizers. All following actions were automatically performed by the experimental set up used. The experimental set up constituted a Labmax® 2 liter automated lab reactor equipped with Lasentec® Probe and the Lasentec® D600 hardware, all distributed by Mettler Toledo. The Lasentec® FBRM® technology enables the detection of nucleation and dissolution temperatures of a solution. FBRM® stands for Focused Beam Reflectance Measurement. The Lasentec® probe measures the number and the average diameter of the particles in the suspension (the laser of the Lasentec® probe continuously scans, with a linear scan speed of 2 m/s, a region of the suspension; the laser light is reflected by the particles residing in the scanned region).
The 40 percent by weight solution was cooled at 0.2° C./minute. Upon detection of nucleation, i.e. when the Lasentec® FBRM® technology detects more than 800 particles with an average diameter of 1 to 20 μm, the so called ‘fines’ region, the mixture was kept at the attained temperature during 0.5 hour as crystallization proceeds. Upon completion of the crystallization, the mixture was heated at 0.2° C./minute. Upon detection of solubilization, i.e. when the Lasentec® FBRM® technology detects less than 30 particles with an average particle diameter of 20 to 50 μm, the so called ‘coarses’ region, the temperature was kept at the attained temperature during 0.5 hour until completion of the solubilization. […]

[3] = MetaStable Zone Width (MSZW) in 1-methoxy-2-propanol at 80° C., Lasentec FBRM technology; assay type: physicochemical; conditions: cooling and heating rate 0.2° C./min, from curve fitting
Experimental: as §1, §2, §3
The MetaStable Zone Width (MSZW), expressed in ° C., at a given temperature, is the width of the Metastable Zone (MSZ) starting at the curve S at that given temperature. Since the MSZW is dependent on the cooling and heating rates, these rates were identical for all solutions investigated, i.e. 0.2° C./min. If the cooling rate would be indefinitely slow, the nucleation curve would practically coincide with the solubility curve and no MetaStable Zone would be detected.
as §4
The 40 percent by weight solution was cooled at 0.2° C./minute. […]

Row | Compound | melting point [°C] | S (MEK) [1] [wt %] | S (MOP) 80° C. [2] [wt. %] | MSZW 80° C. [3] [°C]
1 | CCCCC(CC)COc1c(OC)cc(/C=C/c2ccc(/C=C/c3cc(OC)c(OC(C)CC)c(OC)c3)cc2)cc1OC (stereo not drawn) [AS-01] | 81 | – | – | –
2 | CCC(C)Oc1c(OC)cc(/C=C/c2ccc(/C=C/c3cc(OC)c(OC(CC)CC)c(OC)c3)cc2)cc1OC (stereo not drawn) [AS-02] | 155 | – | – | –
3 | CCC(C)Oc1c(OC)cc(/C=C/c2ccc(/C=C/c3cc(OC)c(OC4CCCCC4)c(OC)c3)cc2)cc1OC (stereo not drawn) [AS-03] | 165 | – | – | –
4 | CCC(C)Oc1c(OC)cc(/C=C/c2ccc(/C=C/c3cc(OC)c(OC4CCCC4)c(OC)c3)cc2)cc1OC (stereo not drawn) [AS-04] | 153 | – | – | –
5 | CCC(C)Oc1c(OC)cc(/C=C/c2ccc(/C=C/c3cc(OC)c(OCCO)c(OC)c3)cc2)cc1OC (stereo not drawn) [AS-05] | 137 | – | – | –
6 | COc1cc(/C=C/c2ccc(/C=C/c3cc(OC)c(OC)c(OC)c3)cc2)cc(OC)c1OC [SS-01] | – | 0.89 | 4.66 | 4.5
7 | CCCOc1c(OC)cc(/C=C/c2ccc(/C=C/c3cc(OC)c(OCCC)c(OC)c3)cc2)cc1OC [SS-02] | – | 4.75 | 10.78 | 4.5
8 | COc1cc(/C=C/c2ccc(/C=C/c3cc(OC)c(OC(C)C)c(OC)c3)cc2)cc(OC)c1OC(C)C [SS-03] | – | 0.45 | 7.31 | 1.7
9 | CCC(C)Oc1c(OC)cc(/C=C/c2ccc(/C=C/c3cc(OC)c(OC(C)CC)c(OC)c3)cc2)cc1OC (stereo not drawn) [SS-04] | – | 8.71 | 22.76 | 1.6
10 | CCC(CC)Oc1c(OC)cc(/C=C/c2ccc(/C=C/c3cc(OC)c(OC(CC)CC)c(OC)c3)cc2)cc1OC [SS-05] | – | 9.64 | 6.14 | 3.6
11 | CCCCC(CC)COc1c(OC)cc(/C=C/c2ccc(/C=C/c3cc(OC)c(OCC(CC)CCCC)c(OC)c3)cc2)cc1OC (stereo not drawn) [SS-06] | – | 23.21 | – | –
